Test results: BindingDB's records for patent US20230399314 (Wuhan Humanwell Innovative Drug Research and Development …, 2023)

Molecular target: 5'-nucleotidase (Homo sapiens, UniProt P21589)
Experiment: In Vitro Inhibitory Activity of Compound to Recombinant Human CD73 Enzyme
Experimental: Human-CD73 (Novoprotein; C446) was diluted with Tris-MgCl2 buffer to form a stock solution (3×), which was placed in a 96-well plate according to 20 μL/well to obtain a final concentration of 0.1 μg/mL. The compound was diluted with Tris-MgCl2 buffer to form a stock solution (3×) of an appropriate concentration gradient, the compound solution was added to the above 96-well plate according to 20 μL/well and uniformly mixed with the Human-CD73 solution, and the mixture was incubated at the room temperature for 30 min. Meanwhile, a positive reference group (without the compound) and a negative reference group (without CD73) were set. AMP (Sigma; A1752-5G) was diluted with Tris-MgCl2 buffer to form a stock solution (3×), which was added to the above 96-well plate according to 20 μL/well to obtain a final concentration of 100 μM, and the mixture was uniformly mixed and incubated at 37° C. for 60 min; ATP (Sigma; A7699-1G) was diluted with Tris-MgCl2 buffer to form a stock solution (7×), which was added to the above 96-well plate according to 10 μL/well to obtain a final concentration of 100 μM, and the mixture was uniformly mixed, incubated for 5 min, and tested by using an ATP-GLO kit (Promega; G7573).

5'-nucleotidase, sequence (P21589 whole entry): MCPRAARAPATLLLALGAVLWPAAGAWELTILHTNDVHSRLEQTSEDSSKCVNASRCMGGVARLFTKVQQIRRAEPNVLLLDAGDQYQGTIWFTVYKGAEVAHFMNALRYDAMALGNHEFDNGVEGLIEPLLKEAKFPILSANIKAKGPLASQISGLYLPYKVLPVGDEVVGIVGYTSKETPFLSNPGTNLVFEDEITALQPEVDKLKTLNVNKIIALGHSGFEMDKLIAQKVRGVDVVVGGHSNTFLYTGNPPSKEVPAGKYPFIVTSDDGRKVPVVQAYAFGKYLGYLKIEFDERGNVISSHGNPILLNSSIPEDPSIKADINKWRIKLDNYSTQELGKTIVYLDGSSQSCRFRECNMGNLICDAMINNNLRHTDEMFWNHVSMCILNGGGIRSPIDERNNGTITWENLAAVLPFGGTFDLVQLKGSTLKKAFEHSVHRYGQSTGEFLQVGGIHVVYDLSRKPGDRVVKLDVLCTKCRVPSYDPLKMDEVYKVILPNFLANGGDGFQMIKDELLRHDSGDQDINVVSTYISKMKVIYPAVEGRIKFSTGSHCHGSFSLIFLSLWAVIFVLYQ

| Compound | IC50 |
| --- | --- |
| O=c1[nH]cc(-c2cc([C@@H]3C[C@H]3C(F)(F)F)c(Cl)nn2)c(=O)[nH]1 (relative stereo) [US20230399314, Compound 2] | 23.2 nM |
| O=c1[nH]cc(-c2cc([C@H]3C[C@@H]3C(F)(F)F)c(Cl)nn2)c(=O)[nH]1 [US20230399314, Compound 3] | 11.6 nM |
| O=c1[nH]cc(-c2cc([C@H]3C[C@@H]3CF)c(Cl)nn2)c(=O)[nH]1 [US20230399314, Compound 9] | 4.59 nM |
